This note sets out measurements from ChEMBL document CHEMBL5257099, “Design, synthesis and bioactivity evaluations of 8-substituted-quinoline-2-carboxamide derivatives as novel histone deacetylase (HDAC) inhibitors” (Bioorg Med Chem, 2023).

Molecules are shown by their SMILES. A value given as a limit tells only on which side of the number the result lay.

One data set concerns the target Histone deacetylase. In words: Inhibition of HDAC in human HeLa nuclear extract using Boc-Lys(Ac)-AMC or Boc-Lys(Tfa)-AMC as substrate preincubated for 5 mins followed by substrate addition and measured after 30 mins by fluorescence assay. The class given is subcellular, Nucleus.
A further data set has as its system Jurkat. In words: Antiproliferative activity against human Jurkat cells assessed as inhibition of cell growth incubated for 48 hrs by CCK-8 assay. The class given is functional, cell-based.
The subject of another data set is PC-3. In words: cells. It is filed as functional, cell-based. The settings on record: Homo sapiens, PC-3, 48 h.
A further data set has as its target Histone deacetylase 2 (Homo sapiens, UniProt Q92769). The data set is described as follows: Inhibition of HDAC2 (unknown origin) using Boc-Lys(Ac)-AMC or Boc-Lys(Tfa)-AMC as substrate preincubated for 5 mins followed by substrate addition and measured after 1 hr by fluorescence assay.
The next data set has as its target T1, Histone deacetylase 8 (Homo sapiens, UniProt Q9BY41).
T1 sequence (Q9BY41 whole entry): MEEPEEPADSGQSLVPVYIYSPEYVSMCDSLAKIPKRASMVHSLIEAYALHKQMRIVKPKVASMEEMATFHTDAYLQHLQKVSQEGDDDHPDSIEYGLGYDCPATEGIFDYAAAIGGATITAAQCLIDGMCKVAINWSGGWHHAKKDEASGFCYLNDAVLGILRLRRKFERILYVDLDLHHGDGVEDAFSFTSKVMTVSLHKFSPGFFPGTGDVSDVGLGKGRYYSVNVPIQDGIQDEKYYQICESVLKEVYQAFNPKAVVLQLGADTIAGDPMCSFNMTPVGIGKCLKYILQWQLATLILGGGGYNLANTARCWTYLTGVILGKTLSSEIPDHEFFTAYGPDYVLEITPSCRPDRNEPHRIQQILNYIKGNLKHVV
The data set is described as follows: Inhibition of HDAC8 (unknown origin) using Boc-Lys(Ac)-AMC or Boc-Lys(Tfa)-AMC as substrate preincubated for 5 mins followed by substrate addition and measured after 1 hr by fluorescence assay.

The nature of another data set: cells. The settings on record: Homo sapiens, KM3, 48 h. It is filed as functional, cell-based.
The target in the next data set is Histone deacetylase 1 (Homo sapiens, UniProt Q13547). The data set is described as follows: Inhibition of HDAC1 (unknown origin) using Boc-Lys(Ac)-AMC or Boc-Lys(Tfa)-AMC as substrate preincubated for 5 mins followed by substrate addition and measured after 2 hrs by fluorescence assay.
A short description of the next data set: in vitro. The settings on record: human, HUVEC cells.
In data set [1] the target is T2, Protein deacetylase HDAC6 (Homo sapiens, UniProt Q9UBN7).
T2 sequence (Q9UBN7 whole entry): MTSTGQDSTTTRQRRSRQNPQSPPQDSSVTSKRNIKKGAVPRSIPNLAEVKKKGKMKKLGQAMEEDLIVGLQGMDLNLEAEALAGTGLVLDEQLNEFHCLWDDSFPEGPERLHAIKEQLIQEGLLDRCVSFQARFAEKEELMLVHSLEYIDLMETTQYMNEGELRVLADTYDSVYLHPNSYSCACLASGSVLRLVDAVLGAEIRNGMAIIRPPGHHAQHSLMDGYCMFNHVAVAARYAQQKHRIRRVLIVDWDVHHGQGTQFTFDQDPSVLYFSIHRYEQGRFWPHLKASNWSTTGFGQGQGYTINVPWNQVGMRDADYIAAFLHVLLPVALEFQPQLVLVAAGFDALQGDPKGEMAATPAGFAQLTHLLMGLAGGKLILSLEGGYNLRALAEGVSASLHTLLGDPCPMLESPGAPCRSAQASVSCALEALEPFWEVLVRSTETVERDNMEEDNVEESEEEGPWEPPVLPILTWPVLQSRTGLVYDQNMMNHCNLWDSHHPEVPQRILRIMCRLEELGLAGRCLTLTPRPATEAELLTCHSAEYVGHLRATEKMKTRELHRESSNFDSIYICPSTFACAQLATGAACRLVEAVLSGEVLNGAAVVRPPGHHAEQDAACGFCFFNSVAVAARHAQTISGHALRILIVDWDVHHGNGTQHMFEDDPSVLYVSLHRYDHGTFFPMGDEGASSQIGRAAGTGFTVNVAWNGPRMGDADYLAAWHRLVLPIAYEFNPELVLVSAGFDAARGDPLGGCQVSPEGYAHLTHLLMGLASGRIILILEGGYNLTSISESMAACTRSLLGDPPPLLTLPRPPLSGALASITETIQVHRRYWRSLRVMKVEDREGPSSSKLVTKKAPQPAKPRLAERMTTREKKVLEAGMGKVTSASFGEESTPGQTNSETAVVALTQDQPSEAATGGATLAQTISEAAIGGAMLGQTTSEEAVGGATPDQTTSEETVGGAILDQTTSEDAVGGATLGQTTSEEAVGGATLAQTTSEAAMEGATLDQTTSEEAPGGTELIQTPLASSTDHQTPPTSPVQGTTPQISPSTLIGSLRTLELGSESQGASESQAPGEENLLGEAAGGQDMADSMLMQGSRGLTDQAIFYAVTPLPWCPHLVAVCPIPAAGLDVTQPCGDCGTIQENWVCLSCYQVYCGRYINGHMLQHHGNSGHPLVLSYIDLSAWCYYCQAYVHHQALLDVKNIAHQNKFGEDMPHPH
In words: Inhibition of HDAC6 (unknown origin) using Boc-Lys(Ac)-AMC or Boc-Lys(Tfa)-AMC as substrate preincubated for 5 mins followed by substrate addition and measured after 2 hrs by fluorescence assay.

Another data set has as its system SK-N-BE(2). The data set is described as follows: cells. It is filed as functional, cell-based. The settings on record: Homo sapiens, SKNBE2, 48 h.
Data set [2] is described as follows: Metabolic stability in liver microsomes (unknown origin) at 2 mg/ml incubated for 120 mins under shaking condition in presence of NADPH by HPLC method. The settings on record: 2 h. The class given is ADME, Microsome. Background: Liver microsomes are a subcellular fraction often used to study metabolism.

Chain of Histone deacetylase 1 (Q13547 whole entry): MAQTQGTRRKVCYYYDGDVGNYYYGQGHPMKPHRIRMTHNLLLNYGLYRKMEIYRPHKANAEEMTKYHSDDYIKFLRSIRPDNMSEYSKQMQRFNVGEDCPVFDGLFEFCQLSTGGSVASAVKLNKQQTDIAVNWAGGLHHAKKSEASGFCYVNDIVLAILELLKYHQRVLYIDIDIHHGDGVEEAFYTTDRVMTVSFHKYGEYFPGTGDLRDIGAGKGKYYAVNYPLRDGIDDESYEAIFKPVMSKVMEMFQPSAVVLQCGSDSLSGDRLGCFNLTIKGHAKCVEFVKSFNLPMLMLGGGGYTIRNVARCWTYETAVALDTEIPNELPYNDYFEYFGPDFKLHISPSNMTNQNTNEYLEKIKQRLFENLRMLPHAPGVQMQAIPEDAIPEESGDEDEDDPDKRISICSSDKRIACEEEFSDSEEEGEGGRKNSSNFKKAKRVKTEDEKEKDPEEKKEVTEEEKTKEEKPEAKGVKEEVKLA
Chain of Histone deacetylase 2 (Q92769 whole entry): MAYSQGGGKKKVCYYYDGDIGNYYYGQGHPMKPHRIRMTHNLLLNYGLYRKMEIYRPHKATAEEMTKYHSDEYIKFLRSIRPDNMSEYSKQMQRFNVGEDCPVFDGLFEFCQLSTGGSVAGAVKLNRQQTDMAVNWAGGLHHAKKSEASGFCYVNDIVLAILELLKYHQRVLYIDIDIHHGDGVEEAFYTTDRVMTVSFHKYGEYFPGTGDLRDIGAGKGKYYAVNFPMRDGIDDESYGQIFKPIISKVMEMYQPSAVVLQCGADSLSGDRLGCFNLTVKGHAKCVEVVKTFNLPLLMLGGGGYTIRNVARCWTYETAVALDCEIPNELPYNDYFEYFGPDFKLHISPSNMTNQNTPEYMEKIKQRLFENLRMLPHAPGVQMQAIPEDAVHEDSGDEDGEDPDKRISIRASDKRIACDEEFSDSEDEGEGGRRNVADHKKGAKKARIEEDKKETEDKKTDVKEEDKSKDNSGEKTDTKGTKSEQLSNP
Description for PC-3: Antiproliferative activity against human PC-3 cells assessed as inhibition of cell growth incubated for 48 hrs by CCK-8 assay
Description for SK-N-BE(2): Antiproliferative activity against human SK-N-BE(2) cells assessed as inhibition of cell growth incubated for 48 hrs by CCK-8 assay
Description for in vitro: Cytotoxicity against HUVEC cells assessed as inhibition of cell growth incubated for 48 hrs by CCK-8 assay

`CC(C)(C)c1ccc(COc2cccc3ccc(C(=O)NCCCCCC(=O)NO)nc23)cc1`: the IC50 against Histone deacetylase is 0.187 µM.

`COc1ccc(COc2cccc3ccc(C(=O)NCCCCCC(=O)NO)nc23)cc1` returned a 50% inhibitory concentration (IC50) against Histone deacetylase of 0.127 µM.

Take `O=C(CCCCCNC(=O)c1ccc2cccc(OCc3ccc(Br)cc3)c2n1)NO`: at Histone deacetylase, the IC50 came out at 0.168 µM.

Consider `O=C(CCCCCCC(=O)Nc1ccccc1)NO` [VORINOSTAT], for which, in the data set with Jurkat, the half-maximal inhibitory concentration (IC50) came out at 3.62 µM.

At Histone deacetylase, `O=C(NO)c1ccc(CNC(=O)c2ccc3cccc(OCc4ccc(Br)cc4)c3n2)cc1` gave an IC50 of 0.054 µM.

Turning to `O=C(NO)c1ccc(CNC(=O)c2ccc3cccc(OCc4ccccc4)c3n2)cc1`, the IC50 on Histone deacetylase came out at 0.062 µM.

For `COc1ccc(COc2cccc3ccc(C(=O)NCc4ccc(C(=O)NO)cc4)nc23)cc1`, the IC50 is 4.85 µM in the data set with Jurkat; 5.9 µM in the data set on PC-3; 72 nM at Histone deacetylase 2; over 10 µM on Histone deacetylase 8; 1460 nM in “cells”; 130 nM on Histone deacetylase 1. In addition, the IC50 was 61 nM in data set [1], 0.041 µM at Histone deacetylase and 4.26 µM in the data set on SK-N-BE(2). Besides, the IC50 at 48 h in “in vitro” was over 50 µM.

For `Cc1ccc(COc2cccc3ccc(C(=O)NCc4ccc(C(=O)NO)cc4)nc23)cc1`, the 50% inhibitory concentration (IC50) in the data set with Jurkat was 4.43 µM; in the data set on PC-3, 4.09 µM; against Histone deacetylase 2, 43 nM; against Histone deacetylase 8, over 10 µM; in the data set “cells”, 1670 nM; on Histone deacetylase 1 it was 132 nM. Further, the values for the IC50 (in data set [1]; against Histone deacetylase; with SK-N-BE(2)) were 101 nM, 0.046 µM and 3.57 µM, respectively. The same compound yielded an IC50 at 48 h in “in vitro” of over 50 µM.

With `O=C(NO)c1ccc(CNC(=O)c2ccc3cccc(OCc4ccc(F)cc4)c3n2)cc1`, the IC50 in the data set on Jurkat is 4.26 µM; in the data set with PC-3, 5.66 µM; at Histone deacetylase 2, 18 nM; at Histone deacetylase 8, over 10 µM; in the data set “cells”, 2830 nM; on Histone deacetylase 1, 70 nM. For the same compound, the results for the IC50 (in data set [1]; on Histone deacetylase; with SK-N-BE(2)) were 38 nM, 0.033 µM and 3.77 µM, respectively. The compound further gave a half-inhibitory concentration (IC50) at 48 h in the data set “in vitro” of over 50 µM.

Turning to `COc1cccc2ccc(C(=O)NCc3ccc(C(=O)NO)cc3)nc12`, in data set [2], the Stability result was “Stable”. In addition, the IC50 was 2.9 µM in the data set on Jurkat; 2.79 µM in the data set on PC-3; 26 nM at Histone deacetylase 2; over 10 µM at Histone deacetylase 8; 500 nM in the data set “cells”; 98 nM at Histone deacetylase 1. The figures for the IC50 (in data set [1]; against Histone deacetylase; with SK-N-BE(2)) were 166 nM, 0.05 µM and 1.21 µM, respectively. The IC50 at 48 h in the data set “in vitro” is over 50 µM.

Take `O=C(CCCCCNC(=O)c1ccc2cccc(OCc3ccccc3)c2n1)NO`: the IC50 at Histone deacetylase came to 0.168 µM.

The IC50 is the concentration that gives 50% inhibition.
